The results in this text go back to article PMC8002351, “Triterpenes and Phenolic Compounds from the Fungus Fuscoporia torulosa: Isolation, Structure Determination and Biological Activity” (Molecules, 2021).

A value given as a limit tells only on which side of the number the result lay.

For one data set, the target named is T1, P-glycoprotein (P-gp) (Homo sapiens, UniProt P08183).
T1 construct: Colo 320/MDR-LRP (ATCC-CCL-220.1) resistant to anticancer agents expressing ABCB1
The experiment in a line: Rhodamine 123 accumulation assay (flow cytometry). The format is cell-based. Further details: key to FAR (fluorescence activity ratio): FAR = (Colo320 treated/control)/(Colo205 treated/control). The following applies: for FSC / SSC: Colo 320. On the procedure:
The cell numbers of the human colon adenocarcinoma cell lines were adjusted to 2 × 10^6 cells/mL, re-suspended in serum-free RPMI 1640 medium, and distributed in 0.5 mL aliquots into Eppendorf centrifuge tubes. The tested compounds were added at concentrations of 2 or 20 μM, and the samples were incubated for 10 min at room temperature. Tariquidar was applied as positive control at 0.2 μM. DMSO at 2% v/v was used as solvent control. Next, 10 µL (5.2 µM final concentration) of the fluorochrome and ABCB1 substrate rhodamine 123 (Sigma) were added to the samples and the cells were incubated for a further 20 min at 37 °C, washed twice, and re-suspended in 1 mL PBS for analysis. The fluorescence of the cell population was measured with a PartecCyFlow® flow cytometer (Partec, Münster, Germany). The fluorescence activity ratio was calculated as the quotient between the FL-1 of the treated/untreated resistant Colo 320 cell line over the treated/untreated sensitive Colo 205 cell line according to the following equation [31]:(1) FAR = Colo320treated/Colo320control/Colo205treated/Colo205control

Data set [1] concerns Staphylococcus aureus ATCC 25,923. Nature of the data set: Minimum inhibitory concentration by microdilution method. In kind it is cell-based. The following applies: ATCC25, broth dilution, 18 h.
For data set [2], the system named is Colo 320. Nature of the data set: Assay for cytotoxic effect (MTT). The format is cell-based, human. The following applies: for cytotoxic effect (in words): Colo 320, applied concentration up to 100 μM; for IC50: resistant Colo 320 cells, MTT, 24 h. The procedure:
(§1) The human colon adenocarcinoma cell lines, the Colo 205 (ATCC-CCL-222) doxorubicin-sensitive parent and Colo 320/MDR-LRP (ATCC-CCL-220.1) resistant to anticancer agents expressing ABCB1, were purchased from LGC Promochem (Teddington, UK). The cells were cultured in RPMI-1640 medium supplemented with 10% heat-inactivated fetal bovine serum (FBS), 2 mM L-glutamine, 1 mM Na-pyruvate, 100 mM Hepes, nystatin, and a penicillin–streptomycin mixture in concentrations of 100 U/L and 10 mg/L, respectively. The MRC-5 (ATCC CCL-171) human embryonic lung fibroblast cell line (LGC Promochem) was cultured in EMEM medium, supplemented with 1% nonessential amino acid (NEAA) mixture, 10% heat-inactivated FBS, 2 mM L-glutamine, 1 mM Na-pyruvate, nystatin, and a penicillin–streptomycin mixture in concentrations of 100 U/L and 10 mg/L, respectively. The cell lines were incubated in a humidified atmosphere (5% CO2, 95% air) at 37 °C.
(§2) The effects of increasing concentrations of the compounds on cell growth were tested in 96-well flat-bottomed microtiter plates. The two-fold serial dilutions of the tested compounds were made starting with 100 μM. Then, 10^4 of human colonic adenocarcinoma cells in 100 μL of the medium (RPMI-1640) were added to each well, except for the medium control wells. The adherent human embryonic lung fibroblast cell line (10^4/well) was seeded in EMEM medium in 96-well flat-bottomed microtiter plates for 4 h before the assay. The serial dilutions of the compounds were made in a separate plate starting with 100 μM, and then transferred to the plates containing the adherent corresponding cell line. Culture plates were incubated at 37 °C for 24 h; at the end of the incubation period, 20 μL of MTT (thiazolyl blue tetrazolium bromide) solution (from a 5 mg/mL stock solution) were added to each well. After incubation at 37 °C for 4 h, 100 μL of sodium dodecyl sulfate (SDS) solution (10% SDS in 0.01 M HCl) were added to each well and the plates were further incubated at 37 °C overnight. Cell growth was determined by measuring the optical density (OD) at 540 nm (ref. 630 nm) with a Multiscan EX ELISA reader (Thermo Labsystems, Cheshire, WA, USA). Inhibition of cell growth was expressed as IC50 values, defined as the inhibitory dose that reduces the growth of the cells exposed to the tested compounds by 50%. IC50 values and the SD of triplicate experiments were calculated using GraphPad Prism software version 5.00 for Windows with nonlinear regression curve fit (GraphPad Software, San Diego, CA, USA; www.graphpad.com). The statistical analysis of data was performed using GraphPad Prism software version 5.00, applying the two-tailed t-test.

The subject of the next data set is MRC-5. The experiment in a line: Assay for cytotoxic effect (MTT). In kind it is cell-based, human. As to conditions: for IC50: normal MRC-5 embryonal fibroblast cells, MTT, 24 h; for cytotoxic effect (in words): MRC-5, applied concentration up to 100 μM. The procedure:
as §1, §2

For a further data set, the system named is Colo 205. Nature of the data set: Assay for cytotoxic effect (MTT). The format is cell-based, human. As to conditions: for cytotoxic effect (in words): Colo 205, applied concentration up to 100 μM; for IC50: sensitive Colo 205 cells, MTT, 24 h. The procedure: as §1, §2
The subject of data set [3] is Escherichia coli ATCC 25922. The experiment in a line: Minimum inhibitory concentration by microdilution method. The format is cell-based. The following applies: ATCC25922, broth dilution, 18 h.
Data set [4] relates to Salmonella enterica serovar Typhimurium 14028s. The description is as above. In kind it is cell-based. As to conditions: broth dilution, 18 h.
Data set [5] relates to S. aureus 27,213 (methicillin and ofloxacin resistant clinical isolate). The description is as above. The following applies: Staphylococcus aureus; broth dilution, 18 h. The format is cell-based.
Data set [6] concerns Colo 320. The experiment in a line: Checkerboard combination assay with doxorubicin. The format is cell-based, human. The following applies: for Fraction affected: Colo 320; for Dm (median-effect dose) in the combination: FuTo III:Doxo ratio 11:1, dose of the named component; for Dm (median-effect dose) in the combination / Dm (median-effect dose), drug alone: Colo 320, 72 h; for Dm (median-effect dose), drug alone: single drug, CompuSyn. The procedure:
A checkerboard microplate method was applied to study the effect of drug interactions between the compound 8 and the chemotherapeutic drug doxorubicin. The assay was carried out on Colo 320 colon adenocarcinoma cell line. The final concentration of the compounds and doxorubicin used in the combination experiment was chosen in accordance with their cytotoxicity towards this cell line. The dilutions of doxorubicin were made in a horizontal direction for the 100 μL volume, and the dilutions of the compounds were made vertically in the microtiter plate for the 50 μL volume. Then, 6 × 10^3 of Colo 320 cells in 50 μL of the medium were added to each well, except for the medium control wells. The plates were incubated for 72 h at 37 °C in 5% CO2 atmosphere. The cell growth rate was determined after MTT staining. At the end of the incubation period, 20 μL of MTT solution (from a stock solution of 5 mg/mL) were added to each well. After incubation at 37 °C for 4 h, 100 μL of SDS solution (10% in 0.01 M HCI) were added to each well and the plates were further incubated at 37 °C overnight. OD was measured at 540 nm (ref. 630 nm) with a Multiscan EX ELISA reader. Combination index (CI) values at 50% of the growth inhibition dose (ED50) were determined using CompuSyn software (ComboSyn, Inc., Paramus, NJ, USA) to plot four to five data points at each ratio. CI values were calculated by means of the median-effect equation, according to the Chou–Talalay method, where CI < 1, CI = 1, and CI > 1 represent synergism, additive effect (or no interaction), and antagonism, respectively.

[7] abbreviates: Fa 0.6829, combination FuTo III + Doxo.
Where [8] appears, read: Fa 0.741889, combination FuTo III + Doxo.
Setting [9] is: Fa 0.80679, combination FuTo III + Doxo.
Where [10] appears, read: Fa 0.912987, combination FuTo III + Doxo.

T1 sequence (P08183 whole entry): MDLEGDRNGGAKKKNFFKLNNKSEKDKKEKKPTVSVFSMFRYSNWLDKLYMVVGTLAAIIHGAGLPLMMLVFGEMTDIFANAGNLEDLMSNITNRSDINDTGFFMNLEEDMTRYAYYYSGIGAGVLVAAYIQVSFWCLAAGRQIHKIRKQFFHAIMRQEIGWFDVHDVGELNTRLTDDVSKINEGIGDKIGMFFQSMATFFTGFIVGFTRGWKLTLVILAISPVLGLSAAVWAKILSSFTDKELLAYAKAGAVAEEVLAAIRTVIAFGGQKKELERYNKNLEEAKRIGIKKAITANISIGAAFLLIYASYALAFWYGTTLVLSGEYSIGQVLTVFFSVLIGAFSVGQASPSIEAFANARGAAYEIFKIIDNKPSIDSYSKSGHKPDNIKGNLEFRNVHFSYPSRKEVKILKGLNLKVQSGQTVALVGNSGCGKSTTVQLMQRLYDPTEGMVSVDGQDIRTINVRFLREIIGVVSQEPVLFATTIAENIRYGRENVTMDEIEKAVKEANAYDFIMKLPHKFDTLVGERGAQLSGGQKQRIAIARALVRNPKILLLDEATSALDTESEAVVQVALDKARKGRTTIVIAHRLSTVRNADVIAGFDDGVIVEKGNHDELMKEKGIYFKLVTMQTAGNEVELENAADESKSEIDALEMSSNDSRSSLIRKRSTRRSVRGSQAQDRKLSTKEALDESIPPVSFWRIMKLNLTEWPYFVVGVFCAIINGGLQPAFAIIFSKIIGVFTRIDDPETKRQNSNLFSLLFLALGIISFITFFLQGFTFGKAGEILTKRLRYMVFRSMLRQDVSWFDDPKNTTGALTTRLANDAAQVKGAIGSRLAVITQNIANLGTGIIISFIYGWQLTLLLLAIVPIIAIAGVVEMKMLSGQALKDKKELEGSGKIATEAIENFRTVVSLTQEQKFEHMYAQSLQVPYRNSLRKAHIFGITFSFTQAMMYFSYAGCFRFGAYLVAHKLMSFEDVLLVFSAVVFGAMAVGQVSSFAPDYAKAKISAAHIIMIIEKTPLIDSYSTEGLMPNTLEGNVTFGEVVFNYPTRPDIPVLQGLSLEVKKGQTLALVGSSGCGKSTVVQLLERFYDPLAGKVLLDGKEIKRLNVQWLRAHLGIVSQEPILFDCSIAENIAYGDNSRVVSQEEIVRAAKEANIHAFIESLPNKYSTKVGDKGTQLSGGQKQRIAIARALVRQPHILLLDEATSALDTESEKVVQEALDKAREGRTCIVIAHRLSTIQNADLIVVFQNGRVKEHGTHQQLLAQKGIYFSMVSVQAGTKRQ

In the case of `CC(C)=CC[C@H](O)[C@@H](C)[C@H]1CC[C@@]2(C)C3=C(CC[C@]12C)[C@@]1(C)CC[C@@](C)(C(=O)O)[C@@H]1CC3` [Compound 1, 22S-hydroxy-8,24-dien-3-norlanosta-28-oic acid], the FSC at P-glycoprotein (P-gp) (20 μM) was 2005. For the same compound, the SSC at P-glycoprotein (P-gp) (20 μM) was found to be 851. In addition, the “FAR (fluorescence activity ratio)” value at P-glycoprotein (P-gp) (20 μM, Colo 320, rhodamine-123) is recorded as 1.139. Also, the MIC in data set [1], in [3], in [4] and in [5] was over 100 µM each time. Also, the “cytotoxic effect (in words)” value in the data set on Colo 320 [2], in the data set on MRC-5 and in the data set on Colo 205 was “did not show any significant effect” each time. The IC50 in the data set on Colo 320 [2] (Homo sapiens) was over 100 µM; in the data set with MRC-5 (Homo sapiens, MRC5), over 100 µM; in the data set on Colo 205 (Homo sapiens), over 100 µM.

For `CC(C)=CC[C@H](O)[C@@H](C)[C@H]1CC[C@@]2(C)C3=C(CC[C@]12C)[C@@]1(C)CC[C@H](O)[C@@](C)(C(=O)O)[C@@H]1CC3` [Compound 6, senexdiolic acid], the FSC at P-glycoprotein (P-gp) (20 μM) is recorded as 2074. The SSC on P-glycoprotein (P-gp) (20 μM) is on record as 861. In addition, the “FAR (fluorescence activity ratio)” value at P-glycoprotein (P-gp) (20 μM, Colo 320, rhodamine-123) is 1.027. In addition, the MIC in [1], in data set [3], in [4] and in data set [5] was over 100 µM in each case. The IC50 is over 100 µM in the data set on Colo 320 [2] (Homo sapiens); over 100 µM with MRC-5 (Homo sapiens, MRC5); over 100 µM in the data set with Colo 205 (Homo sapiens).

Regarding `Cc1coc(C(=O)[C@@H](C)[C@H]2CC[C@@]3(C)C4=C(CC[C@]23C)[C@@]2(C)CC[C@@](C)(C(=O)O)[C@@H]2CC4)c1` [Compound 7, natalic acid], the FSC on P-glycoprotein (P-gp) (20 μM) was determined as 2095. Further, the SSC at P-glycoprotein (P-gp) (20 μM) came out at 891. Further, the “FAR (fluorescence activity ratio)” value on P-glycoprotein (P-gp) (20 μM, Colo 320, rhodamine-123) was 1.053. Also, the MIC in data set [1], in data set [3], in [4] and in [5] was over 100 µM throughout. Moreover, the “cytotoxic effect (in words)” value in the data set on Colo 320 [2], in the data set on MRC-5 and with Colo 205 was “did not show any significant effect” throughout. Moreover, the IC50 is over 100 µM with Colo 320 [2] (Homo sapiens); over 100 µM in the data set on MRC-5 (Homo sapiens, MRC5); over 100 µM with Colo 205 (Homo sapiens).

For `COc1cccc2c1C(=O)c1c(O)c3c(c(O)c1C2=O)C[C@@](O)(C(=O)CO)C[C@@H]3O[C@H]1C[C@H](N)[C@H](O)[C@H](C)O1` [Doxorubicin, doxorubicin], the IC50 is 7.44 ± 0.2 µM in the data set with Colo 320 [2] (Homo sapiens); over 20 µM in the data set with MRC-5 (Homo sapiens, MRC5); 2.46 ± 0.26 µM in the data set with Colo 205 (Homo sapiens). The Fraction affected in the data set with Colo 320 [6] (Doxo alone 0.135 uM) is 0.6475; in the data set with Colo 320 [6] (Doxo alone 0.269 uM) it was 0.7257; with Colo 320 [6] (Doxo alone 0.539 uM) it was 0.8038; in the data set on Colo 320 [6] (Doxo alone 1.078 uM), 0.9263; with Colo 320 [6] (Doxo alone 4.311 uM), 0.9749. Further, the “Dose Reduction Index (DRI) for experimental values” worked out at 1.374 with Colo 320 [6] (setting [7]), 0.937 with Colo 320 [6] (setting [8]), 0.702 with Colo 320 [6] (setting [9]) and 0.475 in the data set with Colo 320 [6] (setting [10]). Besides, the “Dm (median-effect dose) in the combination” value in the data set on Colo 320 [6] was 0.04246 µM. Besides, the “Dm (median-effect dose), drug alone” value in the data set with Colo 320 [6] stood at 0.08504 µM.

For the compound `COc1cc2c(cc1OC)CN(CCc1ccc(NC(=O)c3cc(OC)c(OC)cc3NC(=O)c3cnc4ccccc4c3)cc1)CC2` [Tariquidar, reference compound], at P-glycoprotein (P-gp) (0.2 μM), the FSC is on record as 1945 and the SSC was found to be 837. For the same compound, the “FAR (fluorescence activity ratio)” value at P-glycoprotein (P-gp) (0.2 μM, Colo 320, rhodamine-123) is 5.533.

Turning to ergosta-7,22-diene-3-one [Compound 8], on P-glycoprotein (P-gp) (2 μM), the FSC was 2099. The SSC on P-glycoprotein (P-gp) (2 μM) worked out at 857. Further, the “FAR (fluorescence activity ratio)” value at P-glycoprotein (P-gp) (2 μM, Colo 320, rhodamine-123) is on record as 0.872. Further, the “FL-1 (mean fluorescence of the cells)” value at P-glycoprotein (P-gp) (2 μM, Colo 320, rhodamine-123) amounted to 10.100. Moreover, the IC50 in the data set on Colo 320 [2] came to 8.43 ± 1.1 µM; with MRC-5, 7.92 ± 1.42 µM; in the data set with Colo 205, 11.7 ± 1.67 µM. Moreover, the “Dose Reduction Index (DRI) for experimental values” turned out to be 18.211 with Colo 320 [6] (setting [7]), 10.119 in the data set on Colo 320 [6] (setting [8]), 5.811 in the data set on Colo 320 [6] (setting [9]) and 2.045 with Colo 320 [6] (setting [10]). In addition, the Fraction affected in the data set on Colo 320 [6] (FuTo III alone 6.25 uM) was found to be 0.0295; in the data set with Colo 320 [6] (FuTo III alone 12.5 uM), 0.2522; in the data set with Colo 320 [6] (FuTo III alone 25 uM), 0.5605. In addition, the “Dm (median-effect dose) in the combination” value in the data set with Colo 320 [6] was 0.4671 µM. Besides, the “combination index (CI) at the 50% growth inhibition dose (ED50)” value in the data set with Colo 320 [6] (compound 8 combined with doxorubicin, ratio 11.2:1, Colo 320, 72 h) was determined as 0.521 ± 0.15. Besides, in the data set with Colo 320 [6], the “Dm (median-effect dose), drug alone” value stood at 21.37 µM.
